The structures appear in SMILES notation.

Chain of KRAS (aa 1-169) G12C, C51S, C80L, C118S (P01116 other isoform, or with tags, fused parts or gaps G12C/C51S/C80L/C118S): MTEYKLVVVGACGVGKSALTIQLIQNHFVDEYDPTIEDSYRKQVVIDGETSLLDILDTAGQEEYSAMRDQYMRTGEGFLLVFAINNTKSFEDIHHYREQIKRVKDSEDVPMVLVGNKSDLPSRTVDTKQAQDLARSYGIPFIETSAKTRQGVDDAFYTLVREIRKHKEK

In the first experiment the target is KRAS (aa 1-169) G12C, C51S, C80L, C118S (Homo sapiens (Human), UniProt P01116, C118S/C51S/C80L/G12C). Briefly: KRAS G12C SOS1-mediated nucleotide exchange / cRaf RBD binding FRET assay (Biochemical Functional Assay). The conditions noted are these: GDP-loaded KRAS G12C pre-incubated with compound at 24° C. for 3 hrs; SOS1, GTPγS, GST-cRaf RBD; inhibition of nucleotide exchange. How it is done:
The KRAS ([…]) G12C, C51S, C80L, C118S with a His-tag was expressed, purified and loaded with GDP in house. All protein and substrate solutions were prepared in assay buffer containing 25 mM HEPES pH7.5, 10 mM MgCl2, and 0.01% Triton X-100. Purified GDP-loaded KRAS (aa 1-169) G12C, C51S, C80L, C118S protein was pre-incubated with a serially diluted compound at 24° C. for 3 hrs. Purified SOS1 (aa 564-1049) protein, GTPYS (Sigma) and GST-cRaf RBD (aa 1-149) were then added to each well and incubated at 24° C. for additional 3 hrs. […] Following the incubation, Mab Anti-6HIS-Tb cryptate (Cisbio) and Mab Anti GST-XL665 (Cisbio) were added and further incubated at 24° C. for 3 hrs. The binding interaction between active GTPγS KRAS G12C and GST-cRaf RBD brings the Tb and XL665 into close proximity enabling an increased FRET signal (Ex337 nm, Em665 nm/620 nm). The inhibition percentage of nucleotide exchange reaction in presence of increasing concentrations of compounds was calculated based on the ratio of fluorescence at 665 nm to that at 620 nm detected on a BMG PHERAstar FSX instrument. The IC50 value of each compound was calculated from fitting the data to the four-parameter logistic model by Dotmatics.
For orientation: IC50 means the midpoint of a concentration-inhibition curve. Consider `C=CC(=O)N1CCN(c2nc(OC[C@@H]3CCCN3C)nn3c(Cc4ccc(O)c5ccccc45)cnc23)C[C@@H]1CC#N` [Compound A19, 2-((S)-1-acryloyl-4-(7-((4-hydroxynaphthalen-1-yl)methyl)-2-(((S)-1-methylpyrrolidin-2-yl)methoxy)imidazo[2,1-f][1,2,4]triazin-4-yl)piperazin-2-yl)acetonitrile], for which the IC50 came to 0.0096 µM. The same measure, in the same setting: the figure for `C=CC(=O)N1CCN(c2nc(OC[C@@H]3C[C@@H](F)CN3C)nc3c(Cc4cc(O)cc5ccccc45)cn(C)c23)C[C@@H]1CC#N` [Compound B3, 2-((S)-1-acryloyl-4-(2-(((2S,4R)-4-fluoro-1-methylpyrrolidin-2-yl)methoxy)-7-((3-hydroxynaphthalen-1-yl)methyl)-5-methyl-5H-pyrrolo[3,2-d]pyrimidin-4-yl)piperazin-2-yl)acetonitrile] is 0.0203 µM; for `C=CC(=O)N1CCN(c2nc(OC[C@@H]3CCCN3C)nn3c(Cc4c(F)cccc4Cl)cnc23)C[C@@H]1CC#N` [Compound A11, 2-((S)-1-acryloyl-4-(7-(2-chloro-6-fluorobenzyl)-2-(((S)-1-methylpyrrolidin-2-yl)methoxy)imidazo[2,1-f][1,2,4]triazin-4-yl)piperazin-2-yl)acetonitrile] it is 0.215 µM. For the compound `C=CC(=O)N1CCN(c2nc(OC[C@@H]3CCCN3C)nn3c(Cc4cccc5cccc(C)c45)cnc23)C[C@@H]1CC#N` [Compound A7, 2-((S)-1-acryloyl-4-(7-((8-methylnaphthalen-1-yl)methyl)-2-(((S)-1-methylpyrrolidin-2-yl)methoxy)imidazo[2,1-f][1,2,4]triazin-4-yl)piperazin-2-yl)acetonitrile], the half-inhibitory concentration (IC50) turned out to be 0.0478 µM. The same measure, in the same setting: the figure for `C=CC(=O)N1CCN(c2nc(OC[C@@H]3CCCN3C)nc3c(Cc4cc(O)cc5ccccc45)cn(C)c23)CC1` [Compound B4, (S)-1-(4-(7-((3-hydroxynaphthalen-1-yl)methyl)-5-methyl-2-((1-methylpyrrolidin-2-yl)methoxy)-5H-pyrrolo[3,2-d]pyrimidin-4-yl)piperazin-1-yl)prop-2-en-1-one] is 0.329 µM. The same measure, in the same setting: the figure for `C=CC(=O)N1CCN(c2nc(OC[C@@H]3CCCN3C)nn3c(Cc4ccccc4Cl)cnc23)C[C@@H]1CC#N` [Compound A12, 2-((S)-1-acryloyl-4-(7-(2-chlorobenzyl)-2-(((S)-1-methylpyrrolidin-2-yl)methoxy)imidazo[2,1-f][1,2,4]triazin-4-yl)piperazin-2-yl)acetonitrile] is 0.217 µM.

The same experiment, now with this note: same assay; the cell prints uM although the column head says nmol.
`C=CC(=O)N1CCN(c2nc(OC[C@@H]3CCCN3C)nn3c(-c4cc(OC)cc5ccccc45)cnc23)C[C@@H]1CC#N` [Compound A3, 2-((S)-1-acryloyl-4-(7-(3-methoxynaphthalen-1-yl)-2-(((S)-1-methylpyrrolidin-2-yl)methoxy)imidazo[2,1-f][1,2,4]triazin-4-yl)piperazin-2-yl)acetonitrile]: the half-inhibitory concentration (IC50) is > 10 µM.
